Earlier results in patent US20120231098A1, “Weight loss composition” (priority 2011, published 2012).

Conditions: by increasing the utilization of fat stores in the body during exercise

For Cn1c(=O)c2c(ncn2C)n(C)c1=O [Caffeine, caffeine], the increase in endurance is given as no less than 15%.
